Results taken from patent US20140155589A1 (priority 2011, published 2014).
Where two headings read alike, the source gives them in different places.

Test system: Pseudomonas aeruginosa (PA 01 strain)
Settings: for Amount of pyocyanine produced per viable bacterial count Relative value (%): relative to control without compound; for Viable bacterial count: shake culture 37° C. 48 hours; for viable bacterial count compared with control: summary of Table 12; for amount of pyocyanine produced per viable bacterial count compared with control: summary of Table 13
[1] = Concentration of compound added 10 mM
[2] = Concentration of compound added 20 mM
[3] = Concentration of compound added 25 mM

SMILES	Amount of pyocyanine produced per viable bacterial count Relative value (%) [1]	Viable bacterial count [1]	Amount of pyocyanine produced per viable bacterial count Relative value (%) [2]	Viable bacterial count [2]	Amount of pyocyanine produced per viable bacterial count Relative value (%) [3]	Viable bacterial count [3]	viable bacterial count compared with control	amount of pyocyanine produced per viable bacterial count compared with control
C=CC(=O)O [Acrylic acid]	250.1%	1.09e+09 mL⁻¹	201.8%	9.4e+08 mL⁻¹	233.1%	8.4e+08 mL⁻¹	almost no difference	larger than that in the control
O=P(O)(O)OP(=O)(O)OP(=O)(O)O [Triphosphoric acid]	40.3%	1.5e+09 mL⁻¹	11.5%	1.5e+09 mL⁻¹	5.4%	1.52e+09 mL⁻¹	almost no difference	significantly lower
O=P(O)(O)O [Phosphoric acid]	118%	1.6e+09 mL⁻¹	105.8%	1.56e+09 mL⁻¹	107.6%	1.49e+09 mL⁻¹	almost no difference	not so different
